Drawing on BindingDB's records for doi:10.1021/jm00394a010 (University of Minnesota, 1987), this text covers Ki for 6 compounds.

As a reminder, the Ki is a measure of affinity in units of concentration, obtained from inhibition or displacement. Higher therefore signals lower affinity.

Where a SMILES comes first, the peptide text is derived from it. Side-chain parts run from the residue outwards. The star is where a group is joined. X1 = CN1CC[C@]23c4c5ccc(O)c4O[C@H]2[C@@H](N*)CC[C@@]3(O)C1C5

The nature of the test: Binding affinity of Opioid receptor delta 1 by the displacement of delta-selective [3H]DSLET from brain membrane preparations.
`CC(C)C[C@H](NC(=O)[C@H](Cc1ccccc1)NC(=O)CNC(=O)[C@H](CCC(=O)NCC(=O)NCC(N)=O)NC(=O)[C@@H](N)Cc1ccc(O)cc1)C(=O)O` (H-YE([Gly-Gly-NH2])GFL-OH) registered an inhibition constant Ki of 88 nM. For `CC(=O)NCC(=O)NCC(=O)N[C@H]1CC[C@@]2(O)C3Cc4ccc(O)c5c4[C@@]2(CCN3C)[C@H]1O5` [1N-[10,17-dihydroxy-4-methyl-(13R,17S)-12-oxa-4-azapentacyclo[9.6.1.01,13.05,17.07,18]octadeca-7(18),8,10-trien-14-ylcarbamoylmethyl]-2-methylcarboxamidoacetamide], the inhibition constant (Ki) is 181 nM. Next, `CC(=O)N[C@H]1CC[C@@]2(O)C3Cc4ccc(O)c5c4[C@@]2(CCN3C)[C@H]1O5` [N-[(1S,13R,14S,17S)-10,17-dihydroxy-4-methyl-12-oxa-4-azapentacyclo[9.6.1.0^{1,13}.0^{5,17}.0^{7,18}]octadeca-7(18),8,10-trien-14-yl]acetamide]: 163 nM. For `CC(C)C[C@H](NC(=O)[C@H](Cc1ccccc1)NC(=O)CNC(=O)[C@H](CCC(=O)N[C@H]1CC[C@@]2(O)C3Cc4ccc(O)c5c4[C@@]2(CCN3C)[C@H]1O5)NC(=O)[C@@H](N)Cc1ccc(O)cc1)C(=O)O` [oxymorphamine- and enkephalin-containing ligand 1] (H-YE(X1)GFL-OH) the value was 26 nM; for `CC(C)C[C@H](NC(=O)[C@H](Cc1ccccc1)NC(=O)CNC(=O)[C@H](CCC(=O)NCC(=O)NCC(=O)N[C@H]1CC[C@@]2(O)C3Cc4ccc(O)c5c4[C@@]2(CCN3C)[C@H]1O5)NC(=O)[C@@H](N)Cc1ccc(O)cc1)C(=O)O` [oxymorphamine- and enkephalin-containing ligand 2] (H-YE([Gly-Gly-X1])GFL-OH), 51 nM; for H-YQGFL-OH, 47 nM.
